Target: T1, Recombinant human IKKβ (IKK2) (Homo sapiens, UniProt O14920)
T1 construct: Recombinant human IKKβ (residues 1-737); GST (C); made in house
T1 sequence (O14920 1-737): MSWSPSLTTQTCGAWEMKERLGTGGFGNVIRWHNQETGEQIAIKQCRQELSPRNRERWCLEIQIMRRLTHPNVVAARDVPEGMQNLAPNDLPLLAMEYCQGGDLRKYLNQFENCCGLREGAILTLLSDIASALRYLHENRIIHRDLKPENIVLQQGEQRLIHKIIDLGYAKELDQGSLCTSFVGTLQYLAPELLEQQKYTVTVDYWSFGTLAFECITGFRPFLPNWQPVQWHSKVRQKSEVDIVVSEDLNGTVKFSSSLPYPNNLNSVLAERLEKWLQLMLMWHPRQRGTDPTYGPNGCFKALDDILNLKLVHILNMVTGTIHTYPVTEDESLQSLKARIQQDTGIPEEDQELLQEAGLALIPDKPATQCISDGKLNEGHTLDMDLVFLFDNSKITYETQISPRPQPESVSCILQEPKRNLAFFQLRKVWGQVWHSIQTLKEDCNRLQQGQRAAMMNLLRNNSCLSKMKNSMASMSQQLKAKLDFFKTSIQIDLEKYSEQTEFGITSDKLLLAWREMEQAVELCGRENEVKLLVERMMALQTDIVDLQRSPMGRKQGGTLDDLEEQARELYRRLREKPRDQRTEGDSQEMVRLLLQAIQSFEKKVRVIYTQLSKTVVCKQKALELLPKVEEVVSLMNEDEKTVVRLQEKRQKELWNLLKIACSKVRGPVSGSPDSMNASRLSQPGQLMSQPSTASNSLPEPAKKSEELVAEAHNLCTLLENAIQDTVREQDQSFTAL
Test: IKK2 Assay (TR-FRET, phosphorylation of GST-IκBα)
Assay type: biochemical
Conditions: recombinant human IKKβ (residues 1-737), 5 nM; GST-IκBα 25 nM, ATP 1 μM; 30 minutes at room temperature; read-out: pIC50 against IKK2 (converted)
Description: Recombinant human IKKβ (residues 1-737) was expressed in baculovirus as a C-terminal GST-tagged fusion protein, and its activity was assessed using a time-resolved fluorescence resonance energy transfer (TR-FRET) assay. Briefly, IKK2 (5 nM final) diluted in assay buffer (50 mM HEPES, 10 mM MgCl2, 1 mM CHAPS pH 7.4 with 1 mM DTT and 0.01% w/v BSA) was added to wells containing various concentrations of compound or DMSO vehicle (3% final). The reaction was initiated by the addition of GST-IκBα substrate (25 nM final)/ATP (1 μM final), in a total volume of 30 μl. The reaction was incubated for 30 minutes at room temperature, then terminated by the addition of 15 μl of 50 mM EDTA. Detection reagent (15 μl) in buffer (100 mM HEPES pH 7.4, 150 mM NaCl and 0.1% w/v BSA) containing antiphosphoserine-IκBα-32/36 monoclonal antibody 12C2 (Cell Signalling Technology, Beverly Mass., USA) labelled with W-1024 europium chelate (Wallac OY, Turku, Finland), and an APC-labelled anti-GST antibody (Prozyme, San Leandro, Calif., USA) was added and the reaction was further incubated for 60 minutes at room temperature. The degree of phosphorylation of GST-IκBα was measured using a Packard Discovery plate reader (Perkin-Elmer Life Sciences, Pangbourne, UK) as a ratio of specific 665 nm energy transfer signal to reference europium 620 nm signal.

| IC50 [µM] | Structure (SMILES) |
| --- | --- |
| ≤ 10 | Cc1cc2cc(-c3ccccc3)cc(C(N)=O)c2[nH]1 [Example 1, 2-methyl-5-phenyl-1H-indole-7-carboamide] |
| ≤ 10 | NC(=O)c1cc2cc(-c3ccccc3)cc(C(N)=O)c2[nH]1 [Example 2, 5-phenyl-1H-indole-2,7-dicarboxamide] |
